# Laboratory results as given in patent US20100190824A1, “Novel Substituted Piperidones as HSP Inducers” (priority 2007, published 2010).
# Key:
# [1] = tested on: rat orthotopic liver transplantation model; details: donors treated; with vehicle all recipients died; cited from earlier work
# [2] = tested on: injured motoneurones; details: cited from earlier work
# [3] = tested on: permeability of blood brain barrier; details: vascular insult evoked by sub-arachnoidal autologous blood; cited from earlier work
# [4] = tested on: streptozotocin-induced neuropathy; details: cited from earlier work
# [5] = tested on: male Sprague Dawley rats; assay: Neuroprotective activity, transient cerebral ischemia (intraluminal suture occlusion); assay type: in vivo, rat
# Experimental: Transient cerebral ischemia (for 2 hit) was induced in male Sprague Dawley rats of 240-270 g body weight under halothane anaesthesia by the intraluminal suture occlusion technique—inserting a 3-0 polyamide suture from proximal external carotid artery into the lumen of internal carotid artery (Longa E Z. et al. Stroke 20: 84-91; 1989). During the entire surgical procedure for the induction of stroke, the body temperature of the animal was maintained at 37° C., using a homoeothermic blanket. At the end of 2 hrs the suture was removed for reperfusion. The test compound was administered to animals at 8th hour post initiation of occlusion and subsequently at specified interval. At the end of 7 days all the animals were sacrificed and infarct was characterized after staining with triphenyl tetrazolium chloride (TTC). The images of the stained slices were captured using a scanner and was analyzed for infarct size and edema using Scion image software. Neurological scores were obtained at different time points after surgical recovery and improvement was assessed after reperfusion by calculating the percentage change from baseline scores (scores during ischemia).
# [6] = tested on: HSP70b mRNA; assay: Cellular expression of HSP-70 mRNA in primary mixed neurons (real-time PCR); assay type: cell-based; details: fold induction of HSP70b mRNA relative to vehicle treated control; primary mixed neurons from neonatal rat cerebellum; 4 hours; normalized to 18S rRNA
# Experimental: Experiments set forth in this section were conducted to determine whether the compounds of the present invention are able to elevate the expression of HSP-70 gene in cells.
# Hela cell-line or primary mixed neurons derived from neonatal rat cerebellum were employed. Induction was carried out for the indicated dose(s) for 4 hours duration and total RNA was isolated. Expression of HSP70b mRNA along-with expression of 18S rRNA was monitored by real-time PCR. HSP70b mRNA expression was normalized relative to the expression of 18S rRNA.
# The results for test compounds were expressed as fold induction of HSP-70 mRNA relative to vehicle treated control and are as shown in Table 2 & 3.
# [7] = tested on: TNF-α mRNA; assay: Inhibition of LPS-induced TNF-α expression in PMA differentiated THP-1 cells; assay type: cell-based, Human; details: LPS (1 ug/ml) and compound for 4 hours, LPS alone as 100%
# Experimental: The purpose of the present study was to determine the inhibition of lipopolysaccharide(LPS)-induced TNF-α expression in phorbol merstyl ester (PMA) differentiated THP-1 cells.
# Human monocytic leukaemia cell line (THP-1), differentiated into macrophage-like cells by PMA treatment was employed. Differentiated cells were treated with either LPS (1 ug/ml) alone or with LPS (1 ug/ml) and compound for 4 hours. Total RNA was isolated and expression of TNF-αmRNA along-with expression of 18S rRNA was monitored by real-time PCR. TNF-α mRNA expression was normalized relative to the expression of 18S rRNA Considering TNF-α expression for cells treated with LPS alone as 100%; the results for test compounds were expressed as % inhibition of TNF-α expression and are as shown in Table 4
smiles,measurement,setting,value
CC(=O)CCC=C(C)CC/C=C(\C)CC/C=C(\C)CCC=C(C)C (mixture of isomers) [Geranylgeranyl acetone],7-day survival of the recipients,[1],~90%
[O-][n+]1cccc(/C(Cl)=N/OC[C@H](O)CN2CCCCC2)c1 [BRX-220],motoneurones survived,"[2]; 14 days after injury, 21% in vehicle group",39%
same,motoneurons survived,"[2]; at 10 weeks, 15% in untreated group",42%
OC(CO/N=C(\Cl)c1cccnc1)CN1CCCCC1 (stereo not shown) [Bimoclomol],reduction of size of cerebral tissue stained with Evans blue leakage,[3],39%
same,"reduction of nerve conduction slowing, motor",[4],38%
same,"reduction of nerve conduction slowing, sensory",[4],42%
same,retardation of elevated ischemic resistance,[4],71%
"COc1ccc(CC2N(C(=O)Nc3c(C(C)C)cccc3C(C)C)CC(=Cc3ccccn3)C(=O)C2(C)C)cc1 (stereo not shown) [Compound 68, 2-(4-Methoxy-benzyl)-3,3-dimethyl-4-oxo-5-[1-pyridin-2-yl-methylidene]-piperidine-1-carboxylic acid (2,6-diisopropyl-phenyl)-amide]",% reduction Edema,"[5]; i.p. 15.2 mg/kg, multiple dose, from 8th hour post initiation of occlusion, 2 h ischemia, sacrificed at 7 days",51.0%
same,% reduction Infarct,"[5]; i.p. 15.2 mg/kg, multiple dose, from 8th hour post initiation of occlusion, 2 h ischemia, sacrificed at 7 days, TTC staining",30.0%
same,% improvement Mean Neurological Score,"[5]; i.p. 15.2 mg/kg, multiple dose, percentage change from baseline scores (scores during ischemia)",61.1%
same,neuroprotective activity in an animal model of cerebral ischemia,[5]; result in words,reduced infarct size and brain edema with improvement in neurological deficit
same,HSP Induction in mixed neuron,[6],(++++) (>16 fold)
same,TNF-alpha Inhibition,[7],(++++) (>80%)
